Results published in the supplement of paper PMC10307832.

Legend:
Experiment in all cases: relative viability (nuclei count vs DMSO), 5 days (fraction); higher = more cells survive
[1] = compound: CC1=CC(=NN1)NC2=CC(=NC(=N2)/C=C/C3=CC=CC=C3)N4CCN(CC4)C + Cc1nc(NC(=O)N2CCC[C@H]2C(N)=O)sc1-c1ccnc(C(C)(C)C(F)(F)F)c1 [Alpelisib] (partner 2 µM)
How it was run: (§1)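 Lung cancer cell lines, seeded in 1536-well plates, were treated the following day by pin tool with a single drug or with five library-drug doses (not always all listed) in √10 steps on top of a fixed anchor-drug dose. Cells were fixed and nuclei stained in one step after 5 days, and nuclei were counted. Relative viability is the nuclei count for treated wells divided by that for vehicle wells, reported as medians of duplicate plates.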

Obatoclax + Pictilisib = compound: COC1=CC(c2cc3ccccc3[nH]2)=N/C1=C\c1[nH]c(C)cc1C [Obatoclax] + CS(=O)(=O)N1CCN(Cc2cc3nc(-c4cccc5[nH]ncc45)nc(N4CCOCC4)c3s2)CC1 [Pictilisib] (partner 1 µM)
How it was run: as §1

Obatoclax + Decitabine = compound: COC1=CC(c2cc3ccccc3[nH]2)=N/C1=C\c1[nH]c(C)cc1C [Obatoclax] + Nc1ncn([C@H]2C[C@H](O)[C@@H](CO)O2)c(=O)n1 [Decitabine] (partner 2 µM)
How it was run: as §1

Obatoclax + Vorinostat = compound: COC1=CC(c2cc3ccccc3[nH]2)=N/C1=C\c1[nH]c(C)cc1C [Obatoclax] + O=C(CCCCCCC(=O)Nc1ccccc1)NO [Vorinostat] (partner 1 µM)
How it was run: as §1

Row | Cell Line | relative viability ([1]; first compound 0.08 µM) | relative viability ([1]; first compound 0.253 µM) | relative viability ([1]; first compound 0.8 µM) | relative viability ([1]; first compound 2.53 µM) | relative viability ([1]; first compound 8 µM) | relative viability (Obatoclax + Pictilisib; first compound 0.01 µM) | relative viability (Obatoclax + Pictilisib; first compound 0.03162 µM) | relative viability (Obatoclax + Pictilisib; first compound 0.1 µM) | relative viability (Obatoclax + Pictilisib; first compound 0.3162 µM) | relative viability (Obatoclax + Pictilisib; first compound 1 µM) | relative viability (Obatoclax + Decitabine; first compound 0.01 µM) | relative viability (Obatoclax + Decitabine; first compound 0.03162 µM) | relative viability (Obatoclax + Decitabine; first compound 0.1 µM) | relative viability (Obatoclax + Decitabine; first compound 0.3162 µM) | relative viability (Obatoclax + Decitabine; first compound 1 µM) | relative viability (Obatoclax + Vorinostat; first compound 0.01 µM) | relative viability (Obatoclax + Vorinostat; first compound 0.03162 µM) | relative viability (Obatoclax + Vorinostat; first compound 0.1 µM) | relative viability (Obatoclax + Vorinostat; first compound 0.3162 µM) | relative viability (Obatoclax + Vorinostat; first compound 1 µM)
1 | NCI-H647 | 0.927 | 1.11 | 0.782 | 0.05 | 0.0332 | 0.469 | 0.393 | 0.118 | 0.33 | 0.153 | 0.422 | 0.27 | 0.438 | 0.3 | 0.112 | 0.667 | 0.523 | 0.652 | 0.304 | 0.161
2 | NCI-H661 | 0.578 | 0.749 | 0.94 | 0.455 | 0.197 | 0.392 | 0.363 | 0.33 | – | 0.451 | 0.539 | 0.532 | 0.594 | 0.558 | 0.489 | 0.734 | 0.789 | 0.81 | 0.711 | 0.552
3 | NCI-H727 | 0.586 | 0.54 | 0.529 | 0.377 | 0.167 | 0.33 | 0.456 | 0.701 | 0.339 | 0.253 | 0.916 | 0.731 | 0.798 | 0.591 | 0.872 | 1.18 | 1.14 | 1.29 | 1.05 | 1.3
4 | NCI-H838 | 1.02 | 1.13 | 0.884 | 0.749 | 0.139 | 0.52 | 0.508 | 0.421 | 0.35 | 0.247 | 0.471 | 0.412 | 0.511 | 0.338 | 0.32 | 0.687 | 0.7 | 0.736 | 0.678 | 0.36
